Measured values: patent publication US9247732B2, “Agrochemical formulations containing a compatibility agent” (priority 2011, dated 2016)

Assay: Tank-mix compatibility test of dodine 400 SC with another pesticide or adjuvant
Type: physicochemical
Settings: dodine 400 SC 1.25 l/200 l water plus other pesticide or adjuvant, observed after mixing for 30 minutes
Experimental: Test protocols for evaluating the compatibility of pesticide active ingredients and adjuvants are readily available and known to a person skilled in the art. A method suitable for use in the present invention is as follows: fill a 250 ml beaker with 200 ml of well water (temperature 15-17° C., water hardness 8° dH corresponding to 80 mg calcium oxide/l). […] Add a magnetic stirrer to the beaker. Stir the suspension for approximately 5 minutes at a speed of rotation of 700 rotations per minute. Add a mixing partner, such as an adjuvant or second plant protection product to the suspension. Stir the suspension for an additional 15 minutes. Stop stirring when a total stirring time of 20 minutes is obtained. Let the suspension stand unstirred for a few minutes. Then check for any separation, sediment, crystallization or flocculation. Note down the results of the visual observation. Stir the suspension for a further 20 minutes. Stop the stirring. After 2 hours have lapsed assess the compatibility for a second time. Upon finishing the second observation, pour the whole suspension over a 100 μm sieve. Note down if residue is present on the sieve.
Tank-mixes comprising dodine without acetate were prepared. […] Mixing was stopped.
As a comparison, the same tank-mixes were prospered, this time comprising dodine with acetate (A′-E′). […] Mixing was stopped after 30 minutes.

[1] = with sodium acetate 0.36 kg/200 l

| Structure (SMILES) | Compatibility test [1] | Compatibility test (without compatibility agent) |
| --- | --- | --- |
| Cc1cc(C)nc(Nc2ccccc2)n1 [pyrimethanil, N-(4,6-dimethylpyrimidin-2-yl)aniline] | improved the compatibility | not possible due to incompatibility problems |
| CCC(C)(C)C(=O)OC1=C(c2ccc(Cl)cc2Cl)C(=O)OC12CCCCC2 [spirodiclofen] | improved the compatibility | not possible due to incompatibility problems |
| COc1cccc(C(=O)NN(C(=O)c2cc(C)cc(C)c2)C(C)(C)C)c1C [methoxyfenozide, benzoic acid, 3-methoxy-2-methyl-, 2-(3,5-dimethylbenzoyl)-2-(1,1-dimethylethyl)hydrazide] | improved the compatibility | not possible due to incompatibility problems |
